Where a name gives a salt, the structure may show the parent alone. Read-outs that look alike come from different tables or passages of the source.
Tests used:
[1] = for Disintegration temperature: 30-500° C. in synthetic air (4 N2: 1 O2), sodium salt
Method: (Table 5). The solid phase transformation of the dihydrate according to U.S. Pat. No. 6,483,326 B1 was measured by means of the simultaneous thermogravimetry-differential thermal analysis with a Linseis L81-077 coupled with mass spectroscopy measurement with a Netzsch STA 449 C thermobalance, with MS and FTIR coupling at 30-300° C. under helium. The disintegration temperatures of forms I-II were determined with the same device at 30-500° C. in synthetic air (4 N2: 1 O2). The data were analyzed with the factory-set software Proteus.

physchem = details: saturated solution
Method: Further, the solubility of the crystalline forms in a saturated solution was determined.

[2] = test system: isolated mouse bone marrow macrophages
Method: For this purpose, isolated mouse bone marrow macrophages were first treated with form II in concentrations of 2, 20 or 200 μg/mL and stimulated 1 h after treatment with 100 ng/mL or 10 ng/mL LPS. The supernatants were collected 24 h later, and the concentration of TNF-alpha and IL-6 was measured. Not stimulated macrophages, not stimulated macrophages treated with 200 μg/mL form II and LPS-stimulated macrophages (10 or 100 ng/mL LPS) were used as controls.

[3] = test system: stimulated murine macrophages; details: 1 μg/mL LPS with 100 μg/mL
Method: These were measured in the combination of 2 μg/mL active ingredient with macrophages stimulated with 100 ng/mL LPS as well as in the group of the macrophages stimulated with 10 ng/mL in the active ingredient concentration with 20 μg/mL.

[4] = not infected mice; for Weight development/increase MW: over two days
Method: (§1) In a mouse model of the Gram-positive sepsis (infection with S. pyogenes) the therapeutic usability of the crystal forms I and II of the 5-amino-2,3-dihydrophthalazine-1,4-dione sodium salt was tested. The administration of active ingredient was made parenterally 6 hours after the infection occurred. A second administration of active ingredient was made 24 hours after the first application. The test was completed 48 hours after the infection. For both forms (substance groups) three different doses were used. The mice obtained 2, 20 or 200 μg each of form I or form II per animal and application.
(§2) The individual treatment groups comprised 5 animals each, and for the not infected controls two repetitions and for the infected controls and that groups that contained form II four repetitions were made, so that in total 180 animals were in the test.
It is known that the toxicity of substances in an animal test with growing-up mice or rate can influence the weight development.

S. pyogenes [5] = details: infected mice, sodium salt; for Weight development/increase Total MW: complete test time 48 h, survivors
Method: as §1, §2
In the sepsis model described in Example 3, the influence of crystal forms I and II of the 5-amino-2,3-dihydrophthalazine-1,4-dione sodium salt on the weight development of mice infected with S. pyogenes was tested. The development of the body weight during an acute infection may supply important predictive information.

S. pyogenes [6] = details: 48 hours after the infection
Method: as §1, §2
In the sepsis model described in Example 3, the influence the crystal forms II and I of the 5-amino-2,3-dihydrophthalazine-1,4-dione sodium, salt on the probability of survival of the mice infected with S. pyogenes was tested.

S. pyogenes [7] = details: for Germ load (CFU) Blood MW / Germ load (CFU) Liver MW: 48 hours after the infection, sodium salt
Method: as §1, §2
In the sepsis model described in Example 3, the influence of crystal forms II and I of the 5-amino-2,3-dihydrophthalazine-1,4-dione sodium salt on the germ load of the mice infected with S. pyogenes in blood and liver was tested. The test was completed 48 hours after the infection, and the germ load (CFU) existing at this time in blood and liver was determined (see Table).

[8] = healthy mice
Method: as §1
Blood taking occurred after 48 hours at the end of the second application day.

S. pyogenes [9] = details: 48 hours after the infection; remark: listed apart in the source
Method: as §1

[10] = healthy mice, end of the second application day
Text: When administering form I and form II to healthy mice, it was investigated, whether and which influence the application has on certain liver enzymes, in particular the transaminases GOT (AST) and GPT (ALT). Blood taking occurred at the end of the second application day.

[11] = 0.25 g in 10 mL H2O VE, stirring 500 rpm, 25° C., first minutes after addition; sodium salt
Method: The complete dissolution of 0.25 g form I or form II, respectively, in 10 mL H2O VE was achieved under stirring (500 rpm) at 25° C.

[12] = dose 2 μg, LPS 10 ng/mL, supernatant 24 h
[13] = dose 2 μg, LPS 100 ng/mL, supernatant 24 h
[14] = dose 20 μg, LPS 10 ng/mL, supernatant 24 h
[15] = dose 20 μg, LPS 100 ng/mL, supernatant 24 h
[16] = dose 200 μg, LPS 10 ng/mL, supernatant 24 h
[17] = dose 200 μg, LPS 100 ng/mL, supernatant 24 h
[18] = dose 200 μg, not stimulated (no LPS)

Question: With `Nc1cccc2c(=O)[nH][nH]c(=O)c12` [Form II, 5-amino-2,3-dihydrophthalazine-1,4-dione sodium salt] as the molecule, how does the Disintegration temperature ([1]; listed as form II) read?
Answer: 385 °C

Question: And the Disintegration temperature [1]?
Answer: 385 °C ± 10 °C

Question: What about the “Time for which the crystalline form is stable” value ([1]; room temperature (25° C.) and 40° C.) of the same molecule?
Answer: at least two

Question: And the Solubility (physchem; in water at room temperature, sodium salt)?
Answer: 252 mg/mL

Question: What about the “Solubility in comparison” value (physchem) of the same molecule?
Answer: more soluble than form I

Question: What about the “Change of TNF-alpha” value ([2]; 10 ng/mL LPS, 200 μg/mL) of the same molecule?
Answer: significant reduction

Question: What about the “Change of TNF-alpha concentration” value ([2]; 100 ng/mL LPS, all active ingredient concentrations) of the same molecule?
Answer: significant reduction

Question: What about the “Change of IL-6 values” ([2]; 2 μg/mL with 100 ng/mL LPS) of the same molecule?
Answer: significant reductions

Question: And the “Change of IL-6 values” ([2]; 20 μg/mL with 10 ng/mL LPS)?
Answer: significant reductions

Question: What about the “IL-6 MW” value [2, 12] of the same molecule?
Answer: 3.93 ng/mL

Question: What about the “TNF-alpha MW” value [2, 12] of the same molecule?
Answer: 8.38 ng/mL

Question: What about the “IL-6 MW” value [2, 13] of the same molecule?
Answer: 2.67 ng/mL

Question: What about the “TNF-alpha MW” value [2, 13] of the same molecule?
Answer: 7.40 ng/mL

Question: And the “IL-6 MW” value [2, 14]?
Answer: 1.61 ng/mL

Question: What about the “TNF-alpha MW” value [2, 14] of the same molecule?
Answer: 9.80 ng/mL

Question: And the “IL-6 MW” value [2, 15]?
Answer: 4.28 ng/mL

Question: And the “TNF-alpha MW” value [2, 15]?
Answer: 9.06 ng/mL

Question: And the “IL-6 MW” value [2, 16]?
Answer: 3.42 ng/mL

Question: What about the “TNF-alpha MW” value [2, 16] of the same molecule?
Answer: 6.76 ng/mL

Question: What about the “IL-6 MW” value [2, 17] of the same molecule?
Answer: 4.00 ng/mL

Question: What about the “TNF-alpha MW” value [2, 17] of the same molecule?
Answer: 7.69 ng/mL

Question: What about the “IL-6 MW” value [2, 18] of the same molecule?
Answer: 0.00 ng/mL

Question: What about the “TNF-alpha MW” value [2, 18] of the same molecule?
Answer: 0.00 ng/mL

Question: And the “Immunostimulating effect on not LPS-induced macrophages” value ([2]; not LPS-induced)?
Answer: could not be shown

Question: What about the “Effect on IL-6 values” [3] of the same molecule?
Answer: immunodepressive effect

Question: And the “Toxicity judged from weight development” value [4]?
Answer: do not have any toxicity or at most a very small one

Question: And the “Weight development/increase MW” value ([4]; 2 μg per animal and application, parenteral, sodium salt)?
Answer: -0.14 g

Question: What about the “Weight development/increase MW” value ([4]; 20 μg per animal and application, parenteral, sodium salt) of the same molecule?
Answer: 1.43 g

Question: And the “Weight development/increase MW” value ([4]; 200 μg per animal and application, parenteral, sodium salt)?
Answer: 0.50 g

Question: And the “Weight development/increase MW” value ([4]; all doses (total))?
Answer: 0.59 g

Question: What about the “Weight development/increase Total MW” value (S. pyogenes [5]; 2 μg) of the same molecule?
Answer: -2.02 g

Question: What about the “Weight development/increase Day 1 MW” value (S. pyogenes [5]; 2 μg) of the same molecule?
Answer: -0.57 g

Question: What about the “Weight development/increase Total MW” value (S. pyogenes [5]; 20 μg) of the same molecule?
Answer: -1.69 g

Question: What about the “Weight development/increase Day 1 MW” value (S. pyogenes [5]; 20 μg) of the same molecule?
Answer: -0.55 g

Question: And the “Weight development/increase Total MW” value (S. pyogenes [5]; 200 μg)?
Answer: -1.86 g

Question: What about the “Weight development/increase Day 1 MW” value (S. pyogenes [5]; 200 μg) of the same molecule?
Answer: -0.72 g

Question: What about the “Weight development/increase Total MW” value (S. pyogenes [5]; all doses (total)) of the same molecule?
Answer: -1.86 g

Question: What about the “Weight development/increase Day 1 MW” value (S. pyogenes [5]; all doses (total)) of the same molecule?
Answer: -0.62 g

Question: And the “Share of surviving mice” value (S. pyogenes [6]; 2 μg, sodium salt)?
Answer: 90%

Question: And the “Share of surviving mice” value (S. pyogenes [6]; 20 μg)?
Answer: 80%

Question: What about the “Share of surviving mice” value (S. pyogenes [6]; 200 μg, sodium salt) of the same molecule?
Answer: 70%

Question: And the “Survival compared to the controls” value (S. pyogenes [6])?
Answer: increase of the share of surviving animals

Question: What about the “Share of surviving mice” value (S. pyogenes [6]; all doses (total)) of the same molecule?
Answer: 80%

Question: What about the “Germ load (CFU) Blood MW” value (S. pyogenes [7]; 2 μg) of the same molecule?
Answer: 5.96 log/mL

Question: What about the “Germ load (CFU) Liver MW” value (S. pyogenes [7]; 2 μg) of the same molecule?
Answer: 6.13 log/g

Question: What about the “Germ load (CFU) Blood MW” value (S. pyogenes [7]; 20 μg) of the same molecule?
Answer: 5.88 log/mL

Question: What about the “Germ load (CFU) Liver MW” value (S. pyogenes [7]; 20 μg) of the same molecule?
Answer: 6.79 log/g

Question: What about the “Germ load (CFU) Blood MW” value (S. pyogenes [7]; 200 μg) of the same molecule?
Answer: 5.54 log/mL

Question: What about the “Germ load (CFU) Liver MW” value (S. pyogenes [7]; 200 μg) of the same molecule?
Answer: 6.14 log/g

Question: What about the “Germ load (CFU) Blood MW” value (S. pyogenes [7]; all doses (total)) of the same molecule?
Answer: 5.80 log/mL

Question: What about the “Germ load (CFU) Liver MW” value (S. pyogenes [7]; all doses (total)) of the same molecule?
Answer: 6.36 log/g

Question: And the “Germ count in the blood compared to the controls” value (S. pyogenes [7]; highest dose)?
Answer: tendentious germ count reduction

Question: What about the “TNF-alpha MW” value ([8]; 2 μg, blood after 48 hours, sodium salt) of the same molecule?
Answer: 0.0 pg/mL

Question: And the “TNF-alpha MW” value ([8]; 20 μg, blood after 48 hours, sodium salt)?
Answer: 0.0 pg/mL

Question: What about the “TNF-alpha MW” value ([8]; 200 μg, blood after 48 hours, sodium salt) of the same molecule?
Answer: 16.94 pg/mL

Question: What about the “TNF-alpha MW” value ([8]; all doses (total), blood after 48 hours, sodium salt) of the same molecule?
Answer: 5.65 pg/mL

Question: What about the “IL-6 increase” value ([8]; blood after 48 hours) of the same molecule?
Answer: neither in the substance groups nor in the control groups increases could be found

Question: What about the “TNF-alpha increase” value ([8]; compared to the other groups, sodium salt) of the same molecule?
Answer: do not cause a relevant increase

Question: And the “IL-6 in infected mice” value (S. pyogenes [9]; not confirmed in all repetitions)?
Answer: in part distinct tendencies of an IL-6 reduction

Question: What about the “Liver enzyme values GOT (AST) and GPT (ALT)” value (S. pyogenes [9]; infected mice, some repetitions only) of the same molecule?
Answer: tendencies to reduce the liver enzyme values

Question: What about the “Transaminases GOT (AST) and GPT (ALT)” value [10] of the same molecule?
Answer: Distinct differences between the groups could not be found

Question: And the “Initial dissolution rate” value [11]?
Answer: higher than that of form I

Reference: US9079863B2, “Crystalline forms for 5-amino-2,3-dihydrophthalazine-1,4-dione sodium salt, pharmaceutical preparations containing the same and method for the production of said forms” (METRIOPHARM AG, priority 2010, dated 2015)
